# Read-outs that look alike come from different tables or passages of the source.
# Experiments:
# Test in all cases: MIC by agar plate dilution method
# Format in all cases: cell-based
# P. vulgaris OB1043 = conditions: 10^6 CFU/ml; for MIC: Proteus vulgaris, OB1043, P. vulgaris OB1043, read-out: Minimum Inhibitory Concentration
# Description: (§1) The minimum inhibitory concentrations (MIC: μg/ml) of the compounds of the present invention against various microorganisms were measured by an agar plate dilution method (inoculum size: 10^6 CFU/ml) by using Sensitivity Disk Agar (Nissui) in comparison with Cefotaxime and Ceftazidime as comparative compounds.
# (§2) Minimum Inhibitory Concentration (μg/ml; 10^6 CFU/ml)
# K. pneumoniae No. 42 = conditions: K. pneumoniae No. 42, 10^6 CFU/ml; for MIC: Klebsiella pneumoniae, read-out: Minimum Inhibitory Concentration
# Description: as §1, §2
# S. marcescens No. 16-2 = conditions: S. marcescens No. 16-2, 10^6 CFU/ml; for MIC: Serratia marcescens, NO.162, read-out: Minimum Inhibitory Concentration
# Description: as §1, §2
# E. coli W3630/Rms213 = conditions: 10^6 CFU/ml; for MIC: Escherichia coli, W3630/RMS213, read-out: Minimum Inhibitory Concentration, E. coli W3630/Rms213
# Description: as §1, §2
# C. freundii No. 7 = conditions: C. freundii No. 7, 10^6 CFU/ml; for MIC: Citrobacter freundii, read-out: Minimum Inhibitory Concentration
# Description: as §1, §2
# P. cepacia 23 = conditions: P. cepacia 23, 10^6 CFU/ml; for MIC: Burkholderia cepacia, read-out: Minimum Inhibitory Concentration
# Description: as §1, §2
# P. aeruginosa AK109 = conditions: 10^6 CFU/ml; for Minimum Inhibitory Concentration: P. aeruginosa AK109; for MIC: Pseudomonas aeruginosa, AK109, P. aeruginosa AK109, read-out: Minimum Inhibitory Concentration
# Description: as §1, §2
# S. aureus JS-1 = conditions: S. aureus JS-1, 10^6 CFU/ml; for MIC: Staphylococcus aureus, JS1, read-out: Minimum Inhibitory Concentration
# Description: as §1, §2
# E. coli W3630/Rms212 = conditions: 10^6 CFU/ml; for MIC: Escherichia coli, W3630/RMS212, read-out: Minimum Inhibitory Concentration, E. coli W3630/Rms212
# Description: as §1, §2
# E. cloaceae Nek 39 = conditions: E. cloaceae Nek 39, 10^6 CFU/ml; for MIC: read-out: Minimum Inhibitory Concentration
# Description: as §1, §2
# S. aureus NIHJJC-1 = conditions: for MIC: Staphylococcus aureus
# Description: as §1, §2
# A. calcoaceticus No. 14 = conditions: 10^6 CFU/ml; for MIC: Acinetobacter calcoaceticus, NO.14, A. calcoaceticus No. 14, read-out: Minimum Inhibitory Concentration
# Description: as §1, §2
# E. coli CSH2 = conditions: 10^6 CFU/ml; for MIC: Escherichia coli, read-out: Minimum Inhibitory Concentration
# Description: as §1, §2
# P. mirabilis JY10 = conditions: P. mirabilis JY10, 10^6 CFU/ml; for MIC: Proteus mirabilis, read-out: Minimum Inhibitory Concentration
# Description: as §1, §2
# E. coli CSH = conditions: 10^6 CFU/ml; for MIC: Escherichia coli, read-out: Minimum Inhibitory Concentration
# Description: as §1, §2
# E. coli NIHJJC-2 = conditions: 10^6 CFU/ml; for MIC: Escherichia coli, NIHJJC2, E. coli NIHJJC-2, read-out: Minimum Inhibitory Concentration
# Description: as §1, §2
# P. vulgaris No. 33 = conditions: P. vulgaris No. 33, 10^6 CFU/ml; for MIC: Proteus vulgaris, read-out: Minimum Inhibitory Concentration
# Description: as §1, §2
# E. coli ML1410/Rte16 = conditions: 10^6 CFU/ml; for MIC: Escherichia coli, ML1410/RTE16, read-out: Minimum Inhibitory Concentration, E. coli ML1410/Rte16
# Description: as §1, §2
# P. aeruginosa AKR17 = conditions: 10^6 CFU/ml; for MIC: Pseudomonas aeruginosa, AKR17, P. aeruginosa AKR17, read-out: Minimum Inhibitory Concentration
# Description: as §1, §2
# E. coli C/Rms149 = conditions: 10^6 CFU/ml; for MIC: Escherichia coli, read-out: Minimum Inhibitory Concentration, E. coli C/Rms149
# Description: as §1, §2
# P. maltophilia IID 1275 = conditions: Stenotrophomonas maltophilia, IID1275; P. maltophilia IID 1275; 10^6 CFU/ml; read-out: Minimum Inhibitory Concentration
# Description: as §1, §2
# [1] = NIHJJC1, S. aureus NIHJJC-1, 10^6 CFU/ml, read-out: Minimum Inhibitory Concentration
compound,measurement,setting,value
"CC(C)(O/N=C(\C(=O)NC1C(=O)N2C(C(=O)[O-])=C(C[N+]3(C)CCc4ccccc4C3)CSC12)c1csc(N)n1)C(=O)O (single isomer, unassigned) [Isomer A of Ex. 8-E, 7-[(Z)-2-(2-aminothiazol-4-yl)-2-(1-carboxy-1-methylethoxyimino)acetamido]-3-(2-methyl-1,2,3,4-tetrahydro-2-isoquinolinium)methyl-3-cephem-4-carboxylate]",MIC,P. vulgaris OB1043,0.1 µg/mL
same,MIC,K. pneumoniae No. 42,0.78 µg/mL
same,MIC,S. marcescens No. 16-2,3.12 µg/mL
same,MIC,E. coli W3630/Rms213,0.39 µg/mL
same,MIC,C. freundii No. 7,1.56 µg/mL
same,MIC,P. cepacia 23,6.25 µg/mL
same,Minimum Inhibitory Concentration,P. aeruginosa AK109,6.25 µg/mL
same,MIC,S. aureus JS-1,> 25 µg/mL
same,MIC,E. coli W3630/Rms212,0.39 µg/mL
same,MIC,E. cloaceae Nek 39,1.56 µg/mL
same,MIC,S. aureus NIHJJC-1; [1],6.25 µg/mL
same,MIC,A. calcoaceticus No. 14,25 µg/mL
same,MIC,E. coli CSH2,0.1 µg/mL
same,MIC,P. mirabilis JY10,0.2 µg/mL
same,MIC,E. coli CSH,0.1 µg/mL
same,MIC,E. coli NIHJJC-2,0.2 µg/mL
same,MIC,P. vulgaris No. 33,0.1 µg/mL
same,MIC,E. coli ML1410/Rte16,0.2 µg/mL
same,MIC,P. aeruginosa AKR17,25 µg/mL
same,MIC,E. coli C/Rms149,0.2 µg/mL
"CC(C)(O/N=C(\C(=O)NC1C(=O)N2C(C(=O)[O-])=C(C[N+]3(C)CCc4ccccc4C3)CSC12)c1csc(N)n1)C(=O)O (single isomer, unassigned) [Isomer B of Ex. 8-E, 7-[(Z)-2-(2-aminothiazol-4-yl)-2-(1-carboxy-1-methylethoxyimino)acetamido]-3-(2-methyl-1,2,3,4-tetrahydro-2-isoquinolinium)methyl-3-cephem-4-carboxylate]",Minimum Inhibitory Concentration,P. vulgaris OB1043; P. vulgaris OB1043,0.2 µg/mL
same,Minimum Inhibitory Concentration,K. pneumoniae No. 42,0.78 µg/mL
same,Minimum Inhibitory Concentration,S. marcescens No. 16-2,3.12 µg/mL
same,Minimum Inhibitory Concentration,E. coli W3630/Rms213; E. coli W3630/Rms213,0.78 µg/mL
same,Minimum Inhibitory Concentration,C. freundii No. 7,1.56 µg/mL
same,Minimum Inhibitory Concentration,P. cepacia 23,6.25 µg/mL
same,Minimum Inhibitory Concentration,P. aeruginosa AK109,3.12 µg/mL
same,Minimum Inhibitory Concentration,S. aureus JS-1,> 25 µg/mL
same,Minimum Inhibitory Concentration,E. coli W3630/Rms212; E. coli W3630/Rms212,0.78 µg/mL
same,Minimum Inhibitory Concentration,E. cloaceae Nek 39,3.12 µg/mL
same,Minimum Inhibitory Concentration,"S. aureus NIHJJC-1; S. aureus NIHJJC-1, 10^6 CFU/ml",12.5 µg/mL
same,Minimum Inhibitory Concentration,A. calcoaceticus No. 14; A. calcoaceticus No. 14,> 25 µg/mL
same,Minimum Inhibitory Concentration,E. coli CSH2,0.1 µg/mL
same,Minimum Inhibitory Concentration,P. mirabilis JY10,0.2 µg/mL
same,Minimum Inhibitory Concentration,E. coli CSH,0.2 µg/mL
same,Minimum Inhibitory Concentration,E. coli NIHJJC-2; E. coli NIHJJC-2,0.39 µg/mL
same,Minimum Inhibitory Concentration,P. vulgaris No. 33,0.1 µg/mL
same,Minimum Inhibitory Concentration,E. coli ML1410/Rte16; E. coli ML1410/Rte16,0.39 µg/mL
same,Minimum Inhibitory Concentration,P. aeruginosa AKR17; P. aeruginosa AKR17,> 25 µg/mL
same,Minimum Inhibitory Concentration,E. coli C/Rms149; E. coli C/Rms149,0.39 µg/mL
"CO/N=C(\C(=O)NC1C(=O)N2C(C(=O)[O-])=C(C[N+]3(C)CCc4ccccc4C3)CSC12)c1csc(N)n1 (stereo not shown) [Ex. 1-B, 7-[(Z)-2-(2-aminothiazol-4-yl)-2-methoxyiminoacetamido]-3-(2-methyl-1,2,3,4-tetrahydro-2-isoquinolinium)methyl-3-cephem-4-carboxylate]",MIC,P. vulgaris OB1043,0.78 µg/mL
same,MIC,K. pneumoniae No. 42,0.2 µg/mL
same,MIC,S. marcescens No. 16-2,6.25 µg/mL
same,MIC,E. coli W3630/Rms213,1.56 µg/mL
same,MIC,C. freundii No. 7,1.56 µg/mL
same,MIC,P. aeruginosa AK109,6.25 µg/mL
same,MIC,S. aureus JS-1,3.12 µg/mL
same,MIC,E. coli W3630/Rms212,0.2 µg/mL
same,MIC,E. cloaceae Nek 39,1.56 µg/mL
same,MIC,S. aureus NIHJJC-1; [1],0.78 µg/mL
same,MIC,A. calcoaceticus No. 14,25 µg/mL
same,MIC,E. coli CSH2,0.05 µg/mL
same,MIC,P. mirabilis JY10,0.78 µg/mL
same,MIC,E. coli CSH,0.2 µg/mL
same,MIC,E. coli NIHJJC-2,0.1 µg/mL
same,MIC,P. vulgaris No. 33,0.2 µg/mL
same,MIC,P. aeruginosa AKR17,> 25 µg/mL
same,MIC,E. coli C/Rms149,0.1 µg/mL
"CO/N=C(\C(=O)NC1C(=O)N2C(C(=O)[O-])=C(C[N+]3(C)CCc4cc(OC)c(OC)cc4C3)CSC12)c1csc(N)n1 (stereo not shown) [Ex. 2-E, 7-[(Z)-2-(2-aminothiazol-4-yl)-2-methoxyiminoacetamido]-3-(6,7-dimethoxy-2-methyl-1,2,3,4-tetrahydro-2-isoquinolinium)methyl-3-cephem-4-carboxylate]",MIC,P. vulgaris OB1043,3.12 µg/mL
same,MIC,K. pneumoniae No. 42,1.56 µg/mL
same,MIC,S. marcescens No. 16-2,> 25 µg/mL
same,MIC,E. coli W3630/Rms213,3.12 µg/mL
same,MIC,C. freundii No. 7,12.5 µg/mL
same,MIC,P. aeruginosa AK109,25 µg/mL
same,MIC,S. aureus JS-1,12.5 µg/mL
same,MIC,E. coli W3630/Rms212,1.56 µg/mL
same,MIC,E. cloaceae Nek 39,12.5 µg/mL
same,MIC,"S. aureus NIHJJC-1; NIHJJC1, read-out: Minimum Inhibitory Concentration",1.56 µg/mL
same,MIC,A. calcoaceticus No. 14,> 25 µg/mL
same,MIC,E. coli CSH2,0.2 µg/mL
same,MIC,P. mirabilis JY10,3.12 µg/mL
same,MIC,E. coli CSH,1.56 µg/mL
same,MIC,E. coli NIHJJC-2,0.78 µg/mL
same,MIC,P. vulgaris No. 33,1.56 µg/mL
same,MIC,E. coli ML1410/Rte16,0.78 µg/mL
same,MIC,P. aeruginosa AKR17,> 25 µg/mL
same,MIC,E. coli C/Rms149,0.78 µg/mL
"CCO/N=C(\C(=O)NC1C(=O)N2C(C(=O)[O-])=C(C[N+]3(C)CCc4ccccc4C3)CSC12)c1csc(N)n1 (stereo not shown) [Ex. 7-D, 7-[(Z)-2-(2-aminothiazol-4-yl)-2-ethoxyiminoacetamido]-3-(2-methyl-1,2,3,4-tetrahydro-2-isoquinolinium)methyl-3-cephem-4-carboxylate]",MIC,P. vulgaris OB1043,0.78 µg/mL
same,MIC,K. pneumoniae No. 42,0.78 µg/mL
same,MIC,S. marcescens No. 16-2,6.25 µg/mL
same,MIC,E. coli W3630/Rms213,0.78 µg/mL
same,MIC,C. freundii No. 7,3.12 µg/mL
same,MIC,P. cepacia 23,6.25 µg/mL
same,MIC,P. aeruginosa AK109,6.25 µg/mL
same,MIC,S. aureus JS-1,6.25 µg/mL
same,MIC,E. coli W3630/Rms212,0.78 µg/mL
same,MIC,E. cloaceae Nek 39,3.12 µg/mL
same,MIC,S. aureus NIHJJC-1; [1],0.39 µg/mL
same,MIC,A. calcoaceticus No. 14,25 µg/mL
same,MIC,E. coli CSH2,0.1 µg/mL
same,MIC,P. mirabilis JY10,3.12 µg/mL
same,MIC,E. coli CSH,0.2 µg/mL
same,MIC,E. coli NIHJJC-2,0.39 µg/mL
same,MIC,P. vulgaris No. 33,0.39 µg/mL
same,MIC,E. coli ML1410/Rte16,0.39 µg/mL
same,MIC,P. aeruginosa AKR17,> 25 µg/mL
same,MIC,E. coli C/Rms149,0.39 µg/mL
"CO/N=C(\C(=O)NC1C(=O)N2C(C(=O)[O-])=C(C[N+]3(C)CCc4cc(OC(C)=O)ccc4C3)CSC12)c1csc(N)n1 (stereo not shown) [Ex. 9, 7-[(Z)-2-(2-aminothiazol-4-yl)-2-methoxyiminoacetamido]-3-(6-acetoxy-2-methyl-1,2,3,4-tetrahydro-2-isoquinolinium)methyl-3-cephem-4-carboxylate]",MIC,P. vulgaris OB1043,0.78 µg/mL
same,MIC,K. pneumoniae No. 42,0.78 µg/mL
same,MIC,S. marcescens No. 16-2,12.5 µg/mL
same,MIC,E. coli W3630/Rms213,3.12 µg/mL
same,MIC,C. freundii No. 7,6.25 µg/mL
same,MIC,P. cepacia 23,12.5 µg/mL
same,MIC,P. aeruginosa AK109,3.12 µg/mL
same,MIC,S. aureus JS-1,12.5 µg/mL
same,MIC,E. coli W3630/Rms212,0.2 µg/mL
same,MIC,E. cloaceae Nek 39,1.56 µg/mL
same,MIC,S. aureus NIHJJC-1; [1],0.39 µg/mL
same,MIC,A. calcoaceticus No. 14,> 25 µg/mL
same,MIC,E. coli CSH2,0.1 µg/mL
same,MIC,P. mirabilis JY10,1.56 µg/mL
same,MIC,P. maltophilia IID 1275,> 25 µg/mL
same,MIC,E. coli CSH,1.56 µg/mL
same,MIC,E. coli NIHJJC-2,0.2 µg/mL
same,MIC,P. vulgaris No. 33,0.39 µg/mL
same,MIC,E. coli ML1410/Rte16,0.2 µg/mL
same,MIC,P. aeruginosa AKR17,25 µg/mL
same,MIC,E. coli C/Rms149,0.2 µg/mL
